Measurements reported in patent US9226501B2, “Pesticidal compositions and processes related thereto” (Dow AgroSciences LLC, priority 2012, dated 2016).

How the values were obtained:
[1] = test system: Cabbage Looper (CL) (Trichoplusia ni); test: Bioassay on cabbage looper (CL), 128-well diet tray assay; type: in vivo; conditions: for CL Rating: Table 5, prophetic compounds subsequently exemplified, cabbage looper; for pest or weed control at 50 µg/cm2: Trichoplusia ni, 168 h, % mortality, second instar larvae, 50 μg/cm^2 on artificial diet, five to seven days, 25° C., read-out: CL Rating
Protocol: (§1) Certain molecules disclosed in this document were tested against BAW, CEW and CL using procedures described in the following examples. In the reporting of the results, the “BAW & CEW & CL Rating Table” was used (See Table Section).
Bioassays on CL were conducted using a 128-well diet tray assay. One to five second instar CL larvae were placed in each well (3 mL) of the diet tray that had been previously filled with 1 mL of artificial diet to which 50 μg/cm^2 of the test compound (dissolved in 50 μL of 90:10 acetone-water mixture) had been applied (to each of eight wells) and then allowed to dry. Trays were covered with a clear self-adhesive cover, and held at 25° C., 14:10 light-dark for five to seven days. Percent mortality was recorded for the larvae in each well; activity in the eight wells was then averaged. The results are indicated in the table entitled “Table 4: Assay Results Part 2” (See Table Section).

[2] = test system: Beet Armyworm (BAW) (spodoptera exigua); test: Bioassay on beet armyworm (BAW), 128-well diet tray assay; type: in vivo; conditions: for BAW Rating: Table 5, prophetic compounds subsequently exemplified, beet armyworm; for pest or weed control at 50 µg/cm2: Spodoptera exigua, 168 h, % mortality, second instar larvae, 50 μg/cm^2 on artificial diet, five to seven days, 25° C., read-out: BAW Rating
Protocol: as §1
Bioassays on BAW were conducted using a 128-well diet tray assay. One to five second instar BAW larvae were placed in each well (3 mL) of the diet tray that had been previously filled with 1 mL of artificial diet to which 50 μg/cm^2 of the test compound (dissolved in 50 μL of 90:10 acetone-water mixture) had been applied (to each of eight wells) and then allowed to dry. Trays were covered with a clear self-adhesive cover, and held at 25° C., 14:10 light-dark for five to seven days. Percent mortality was recorded for the larvae in each well; activity in the eight wells was then averaged. The results are indicated in the tables entitled “Table 3: Assay Results Part 1” and “Table 4: Assay Results Part 2” (See Table Section).

| SMILES | CL Rating [1] | BAW Rating [2] | pest or weed control at 50 µg/cm2 [1] [%] | pest or weed control at 50 µg/cm2 [2] [%] |
| --- | --- | --- | --- | --- |
| O=C(CNC(=O)c1ccc(/C=C/C(c2cc(Cl)c(F)c(Cl)c2)C(F)(F)F)cc1C(F)(F)F)NCC(F)(F)F (stereo not drawn) [P1862] | A (50-100) | A (50-100) | – | – |
| CCNC(=O)[C@@H](C)NC(=O)c1ccc(/C=C/C(c2cc(Cl)c(Cl)c(Cl)c2)C(F)(F)F)cc1C(F)(F)F (stereo partly drawn) [P1623] | A (50-100) | A (50-100) | – | – |
| CC(C)(C)CNC(=O)C(C)(C)NC(=O)c1ccc(/C=C/C(c2cc(Cl)c(Cl)c(Cl)c2)C(F)(F)F)cc1Br (stereo not drawn) [FA15] | – | – | 50 to 100 | 50 to 100 |
| CC(NC(=O)c1ccc(/C=C/C(c2cc(Cl)c(Cl)c(Cl)c2)C(F)(F)F)cc1C(F)(F)F)C(=O)NCCF (stereo not drawn) [P1618A, (E)-N-(1-((2-Fluoroethyl)amino)-1-oxopropan-2-yl)-4-(4,4,4-trifluoro-3-(3,4,5-trichlorophenyl)but-1-en-1-yl)-2-(trifluoromethyl)benzamide] | A (50-100) | A (50-100) | – | – |
| O=C(CNC(=O)c1ccc(/C=C/C(c2cc(C(F)(F)F)cc(C(F)(F)F)c2)C(F)(F)F)cc1Br)NCC(F)(F)F (stereo not drawn) [P1269] | A (50-100) | A (50-100) | – | – |
| C[C@@H](NC(=O)c1ccc(/C=C/C(c2ccc(Br)c(Br)c2)C(F)(F)F)cc1Br)C(=O)NCC(F)(F)F (stereo partly drawn) [P568] | A (50-100) | A (50-100) | – | – |
| Cc1ccc(C(/C=C/c2ccc(C(=O)N[C@H](C)C(=O)NCC(F)(F)F)c(Br)c2)C(F)(F)F)cc1Cl (stereo partly drawn) [P442] | A (50-100) | A (50-100) | – | – |
| C[C@@H](NC(=O)c1ccc(/C=C/C(c2cc(Br)cc(Br)c2)C(F)(F)F)cc1Br)C(=O)NCCF (stereo partly drawn) [P2041] | A (50-100) | A (50-100) | – | – |
| C[C@@H](NC(=O)c1ccc(/C=C/C(c2ccc(F)c(C#N)c2)C(F)(F)F)cc1C(F)(F)F)C(=O)NCC(F)(F)F (stereo partly drawn) [P804] | A (50-100) | A (50-100) | – | – |
| CC(NC(=O)CNC(=O)c1ccc(/C=C/C(c2cc(Br)cc(Br)c2)C(F)(F)F)cc1Br)C(F)(F)F (stereo not drawn) [P2009] | A (50-100) | A (50-100) | – | – |
| CC(C)(NC(=O)c1ccc(/C=C/C(c2cc(Cl)c(Cl)c(Cl)c2)C(F)(F)F)cc1Br)C(=O)NCC#N (stereo not drawn) [FA14] | – | – | 50 to 100 | 50 to 100 |
| C[C@@H](NC(=O)c1ccc(/C=C/C(c2cc(Cl)cc(Br)c2)C(F)(F)F)cc1C(F)(F)F)C(=O)NCC(F)(F)F (stereo partly drawn) [P588] | A (50-100) | A (50-100) | – | – |
| O=C(CNC(=O)c1cc(O)c(/C=C/C(c2cc(Cl)c(Cl)c(Cl)c2)C(F)(F)F)cc1Cl)NCC(F)(F)F (stereo not drawn) [FA4] | – | – | 50 to 100 | 50 to 100 |
| Cc1cc(/C=C/C(c2cc(Cl)c(Cl)c(Cl)c2)C(F)(F)F)ccc1C(=S)NCC(=S)NCC(F)(F)F (stereo not drawn) [P15] | A (50-100) | A (50-100) | – | – |
| CC(NC(=O)c1ccc(/C=C/C(c2cc(Cl)c(Cl)c(Cl)c2)C(F)(F)F)cc1Br)C(=O)NCCF (stereo not drawn) [P1616A] | A (50-100) | A (50-100) | – | – |
| C[C@@H](NC(=O)c1ccc(/C=C/C(c2cc(Cl)cc(Cl)c2)C(F)(F)F)cc1C(F)(F)F)C(=O)NCC(F)(F)F (stereo partly drawn) [P1698] | A (50-100) | A (50-100) | – | – |
| C=Cc1cc(/C=C/C(c2cc(Cl)c(Cl)c(Cl)c2)C(F)(F)F)ccc1C(=O)NCC(=O)NCC(F)(F)F (stereo not drawn) [FA18] | – | – | 50 to 100 | 50 to 100 |
| O=C(CNC(=O)c1ccc(/C=C/C(c2cc(Br)cc(Br)c2)C(F)(F)F)cc1C(F)(F)F)NCC(F)(F)F (stereo not drawn) [P1971] | A (50-100) | A (50-100) | – | – |
| C[C@@H](NC(=O)c1ccc(/C=C/C(c2cc(F)cc(Br)c2)C(F)(F)F)cc1C(F)(F)F)C(=O)NCC(F)(F)F (stereo partly drawn) [P300] | A (50-100) | A (50-100) | – | – |
| O=C(NCC(=S)NCC(F)(F)F)c1ccc(/C=C/C(c2cc(Cl)c(Cl)c(Cl)c2)C(F)(F)F)cc1Cl (stereo not drawn) [P1558] | A (50-100) | A (50-100) | – | – |

| SMILES | CL Rating [1] | BAW Rating [2] | pest or weed control at 50 µg/cm2 [1] [%] | pest or weed control at 50 µg/cm2 [2] [%] |
| --- | --- | --- | --- | --- |
| CC(C)(NC(=O)c1ccc(/C=C/C(c2cc(Cl)c(Cl)c(Cl)c2)C(F)(F)F)cc1)C(=O)NCC(F)(F)F (stereo not drawn) [P1636] | A (50-100) | A (50-100) | – | – |
| C[C@@H](NC(=O)c1ccc(/C=C/C(c2cc(Cl)cc(Br)c2)C(F)(F)F)cc1Br)C(=O)NCC(F)(F)F (stereo partly drawn) [P586] | A (50-100) | A (50-100) | – | – |
| CC(C)(NC(=S)c1ccc(/C=C/C(c2cc(Cl)c(Cl)c(Cl)c2)C(F)(F)F)cc1Cl)C(=S)NCC(F)(F)F (stereo not drawn) [FA10] | – | – | 0 to 50 | 0 to 50 |
| C[C@@H](NC(=O)c1ccc(/C=C/C(c2ccc(OC(F)(F)F)c(Cl)c2)C(F)(F)F)cc1Br)C(=O)NCC(F)(F)F (stereo partly drawn) [FA30] | – | – | 50 to 100 | 50 to 100 |
| C[C@@H](NC(=O)c1ccc(/C=C/C(c2cc(Cl)c(Cl)c(Cl)c2)C(F)(F)F)cc1)C(=O)NCC(F)(F)F (stereo partly drawn) [P1603] | A (50-100) | A (50-100) | – | – |
| C[C@@H](NC(=O)c1ccc(/C=C/C(c2cc(Br)cc(Br)c2)C(F)(F)F)cc1Br)C(=O)NCCC(F)(F)F (stereo partly drawn) [P2056] | A (50-100) | A (50-100) | – | – |
| C[C@@H](NC(=O)c1ccc(/C=C/C(c2cc(Cl)c(Br)c(Cl)c2)C(F)(F)F)cc1C(F)(F)F)C(=O)NCC(F)(F)F (stereo partly drawn) [FA21] | – | – | 50 to 100 | 50 to 100 |
| Cc1cc(/C=C/C(c2cc(Cl)c(Cl)c(Cl)c2)C(F)(F)F)cc(C)c1C(=O)N[C@H](C)C(=O)NCC(F)(F)F (stereo partly drawn) [FA28] | – | – | 50 to 100 | 50 to 100 |
| O=C(CNC(=O)c1ccc(/C=C/C(c2cc(Cl)cc(C(F)(F)F)c2)C(F)(F)F)cc1Br)NCC(F)(F)F (stereo not drawn) [P1411] | A (50-100) | A (50-100) | – | – |
| CC(C)(NC(=O)c1ccc(/C=C/C(c2cc(Cl)c(Cl)c(Cl)c2)C(F)(F)F)cc1C(F)(F)F)C(=S)NCC(F)(F)F (stereo not drawn) [FA12] | – | – | 50 to 100 | 50 to 100 |
| O=C(CNC(=O)c1ccc(/C=C/C(c2cc(Cl)c(Cl)c(Cl)c2)C(F)(F)F)cc1I)NCC(F)(F)F (stereo not drawn) [FA24] | – | – | 50 to 100 | 50 to 100 |
| CCNC(=O)[C@@H](C)NC(=O)c1ccc(/C=C/C(c2cc(Cl)c(Cl)c(Cl)c2)C(F)(F)F)cc1Br (stereo partly drawn) [P1621] | A (50-100) | A (50-100) | – | – |
| O=C(CNC(=O)c1ccc(/C=C/C(c2cccc(C(F)(F)F)c2)C(F)(F)F)cc1Br)NCC(F)(F)F (stereo not drawn) [P1] | A (50-100) | A (50-100) | – | – |
| O=C(CNC(=O)c1ccc(/C=C/C(c2ccc(Cl)c(Cl)c2)C(F)(F)F)cc1)NCC(F)(F)F (stereo not drawn) [P1781] | A (50-100) | A (50-100) | – | – |
| C[C@@H](NC(=O)c1ccc(/C=C/C(c2ccc(Br)c(Br)c2)C(F)(F)F)cc1C(F)(F)F)C(=O)NCC(F)(F)F (stereo partly drawn) [P660] | A (50-100) | A (50-100) | – | – |
| O=C(CNC(=O)c1ccc(/C=C/C(c2cc(F)c(F)c(F)c2)C(F)(F)F)cc1Br)NCC(F)(F)F (stereo not drawn) [P1197] | A (50-100) | A (50-100) | – | – |
| O=C(NCC(=S)NCC(F)(F)F)c1ccc(/C=C/C(c2cc(Cl)c(Cl)c(Cl)c2)C(F)(F)F)cc1C(F)(F)F (stereo not drawn) [P1559] | A (50-100) | A (50-100) | – | – |
| O=C(CCNC(=O)c1ccc(/C=C/C(c2cc(Cl)c(Cl)c(Cl)c2)C(F)(F)F)cc1Br)NCC(F)(F)F (stereo not drawn) [P1638] | A (50-100) | A (50-100) | – | – |
| CC(NC(=O)CNC(=O)c1ccc(/C=C/C(c2cc(Cl)c(Cl)c(Cl)c2)C(F)(F)F)cc1Br)C(F)(F)F (stereo not drawn) [P1589] | A (50-100) | A (50-100) | – | – |
